The melting point is the temperature, or range, at which the solid turns liquid. For orientation: IC50 means the point on the concentration scale where inhibition reaches its midpoint.

Data on eleven molecules can be found in patent publication US20010044445A1, “AZOLE INHIBITORS OF CYTOKINE PRODUCTION” (priority 1999, published 2001).

In series [1] the test system is Human peripheral blood mononuclear cells. In words: Human Concanavalin-A Proliferation Assay (Con HU Assay). In kind it is cell-based. The settings on record: Homo sapiens, PBMC, concanavalin-A stimulated human PBMC; for inhibition at 100 µM: concentration 100 μm (in parentheses in the cell); for IC50: tritiated thymidine; for inhibition at 1 µM: concentration 1 μm (in parentheses in the cell). The procedure, abridged: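 Proliferation read as tritiated thymidine uptake (0.5 μCi/well, 6 h pulse on day 3) in human PBMC cultured 3 days with 2.5 μg/ml (final) concanavalin-A. Cells, 50,000 per well in supplemented RPMI 1640 with 10% FBS, received compound 15 min before mitogen.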

The mark [2] stands for this setting: 72 h, 3 days, read-out: % Inhibition of proliferation (at concentrations of 1,10, or 100 μm).

SMILES strings stand for the structures.

Regarding `CCCCCCOc1ccc(C(=O)Nc2ccc(-n3nc(C(F)(F)F)cc3C(F)(F)F)cc2)cc1` [Example 74, N-[4-[3,5-bis(trifluoromethyl)-1H-pyrazol-1-yl]phenyl]-4-(hexyloxy)benzamide], the melting point lay within 153 to 155 °C. In addition, the inhibition at 100 µM in series [1] (setting [2]) was found to be 83%. For the same molecule, in series [1], the IC50 is 22800 nM.
For `Cc1cccc(C(=O)Nc2ccc(-n3nc(C(F)(F)F)cc3C(F)(F)F)cc2)c1` [Example 75, N-[4-[3,5-bis(trifluoromethyl)-1H-pyrazol-1-yl]phenyl]-3-methylbenzamide] the same measures were 137 to 139 °C, 100% and 368 nM.
For `CC(=O)Oc1ccccc1C(=O)Nc1ccc(-n2nc(C(F)(F)F)cc2C(F)(F)F)cc1` [Example 76, 2-(Acetyloxy)-N-[4-[3,5-bis(trifluoromethyl)-1H-pyrazol-1-yl]phenyl]benzamide] the same measures were 159 to 161 °C, 100% and 3170 nM.
For `Cc1cc(C)c(C(=O)Nc2ccc(-n3nc(C(F)(F)F)cc3C(F)(F)F)cc2)c(C)c1` [Example 78, N-[4-[3,5-bis(trifluoromethyl)-1H-pyrazol-1-yl]phenyl]-2,4,6-trimethylbenzamide] the same measures were 203 to 205 °C, 95% and 607 nM.
With `O=C(Nc1ccc(-n2nc(C(F)(F)F)cc2C(F)(F)F)cc1)Nc1ccc(Cl)c([N+](=O)[O-])c1` [Example 79, N-[4-[3,5-bis(trifluoromethyl)-1H-pyrazol-1-yl]phenyl]-N′-(4-chloro-3-nitrophenyl)urea], the melting point lay in the range of 207 to 209 °C. In addition, the inhibition at 1 µM in series [1] (setting [2]) stood at 9%.
As for `FC(F)(F)c1cc(C(F)(F)F)n(-c2ccc(NCc3ccccc3Cl)cc2)n1` [Example 82, N-[4-[3,5-bis(trifluoromethyl)-1H-pyrazol-1-yl]phenyl]-2-chlorobenzenemethanamine], the melting point is 240 °C. In addition, in series [1] (setting [2]), the inhibition at 100 µM was 100%. In series [1], this molecule displayed an IC50 of 468 nM.
Turning to `Cn1ncc(C(=O)Nc2ccc(-n3nc(C(F)(F)F)cc3C(F)(F)F)cc2)c1[N+](=O)[O-]` [Example 83, N-[4-[3,5-bis(trifluoromethyl)-1H-pyrazol-1-yl]phenyl]-1-methyl-5-nitro-1H-pyrazole-4-carboxamide], the melting point fell in the range of 214 to 216 °C. Besides, in series [1] (72 h, concentration 10 μm (in parentheses in the cell), 3 days, read-out: % Inhibition of proliferation (at concentrations of 1,10, or 100 μm)), the inhibition at 10 µM was 99%. Moreover, the IC50 in series [1] came to 71 nM.
Molecule `Fc1ccc(CNc2ccc(-n3nc(C(F)(F)F)cc3C(F)(F)F)cc2)cc1` [Example 84, N-[4-[3,5-bis(trifluoromethyl)-1H-pyrazol-1-yl]phenyl]-4-fluorobenzenemethanamine] returned a melting point of 92 to 94 °C. The inhibition at 1 µM in series [1] (setting [2]) was determined as 76%. The molecule further displayed an IC50 in series [1] of 712 nM.
In the case of `O=C(Nc1ccc(-n2nc(C(F)(F)F)cc2C(F)(F)F)cc1)c1ccc(Br)cc1` [Example 85, N-[4-[3,5-bis(trifluoromethyl)-1H-pyrazol-1-yl]phenyl]-4-bromobenzamide], the melting point lay in the range of 205 to 207 °C. The inhibition at 100 µM in series [1] (setting [2]) turned out to be 93%. Also, in series [1], the IC50 was 275 nM.
With `CN(C)c1cccc(C(=O)Nc2ccc(-n3nc(C(F)(F)F)cc3C(F)(F)F)cc2)c1` [Example 88, N-[4-[3,5-bis(trifluoromethyl)-1H-pyrazol-1-yl]phenyl]-3-(dimethylamino)benzamide], the melting point is 180 to 181 °C. The inhibition at 1 µM in series [1] (setting [2]) was found to be 29%.
`O=C(Nc1ccc(-n2nc(C(F)(F)F)cc2C(F)(F)F)cc1)c1ccc(C(F)(F)F)cc1` [Example 89, N-[4-[3,5-bis(trifluoromethyl)-1H-pyrazol-1-yl]phenyl]-4-(trifluoromethyl)benzamide] had a melting point of 170 to 172 °C. For the same molecule, the inhibition at 100 µM in series [1] (setting [2]) was 99%. Also, the IC50 in series [1] is 1230 nM.
